Square brackets hold non-standard residues; d marks the D form. Peptide text beside a SMILES is read from it. PEG2 = NCCOCCOCCC(=O)O
Experiments:
[1] = test system: release of TNF-α from LPS-stimulated RAW264.7 cells; assay: LPS neutralization: TNF-α release from LPS-stimulated RAW264.7 cells; format: cell-based, mouse
Procedure: (§1) The well-characterized response of RAW264.7 macrophage cells was used to produce tumor necrosis-factor-alpha (TNF-α) in response to LPS to determine whether the peptides could dampen the release of this cytokine. […] Importantly, pre-treatment (3 hours prior to LPS addition) as well as post-treatment of the RAW264.7 cells (3 hours post LPS addition) with peptide dampened the cytokine release. […] The finding that the novel peptides bind and neutralize the effect of Pseudomonas LPS is of critical importance since this ensures that the novel therapeutic peptide compounds described herein will not only kill the bacteria, but will also neutralize the LPS endotoxin released by the bacteria which plays such an important role in the rapid progression of sepsis.
(§2) BCC01-5RMP (SEQ ID NO:23), BCC002-5RMP (SEQ ID NO:21), and BCC003-5RMP (SEQ ID NO:22) were tested for their ability to bind lipopolysaccharide (LPS) using the limulus amebocyte lysate method (LAL). […] There was no statistical difference in their ability to bind LPS using the LAL technique. The ability of the peptides to neutralize LPS was assessed by determining their ability to attenuate the release of tumor necrosis factor-alpha (TNF-α) from LPS-stimulated RAW264.7 cells (a mouse macrophage cell line). […] No significant differences were observed between the three peptides to neutralize LPS as measured by cytokine release. Peptides based on sequence 120-146 (SEQ ID NOS:28-31) also bind and neutralize Pseudomonas LPS.

Escherichia coli = assay: In vitro bactericidal activity against Escherichia coli; format: cell-based; conditions: E. coli; inoculum 1×10^6 CFU/ml; 60 to 180 minute incubation
Procedure: (§3) In vitro bactericidal activity: The three peptide compounds BCC01-5RMP (SEQ ID NO:23), BCC002-5RMP (SEQ ID NO:21), and BCC003-5RMP (SEQ ID NO:22) were assayed for in vitro bactericidal activity against Pseudomonas aeruginosa, Escherichia coli, Salmonella typhimurium, and Acinetobacter baumannii. The starting inoculum for all experiments was 1×10^6 colony forming units (CFU)/ml. The CFU remaining at the end of 60 to 180 minute incubation was determined, and the data plotted as a log reduction in CFU/ml.

Pseudomonas LPS = assay: LPS binding, Limulus Amebocyte Lysate (LAL) assay; conditions: LAL method
Procedure: as §1, §2

Salmonella typhimurium = assay: In vitro bactericidal activity against Salmonella typhimurium; format: cell-based; conditions: inoculum 1×10^6 CFU/ml, 60 to 180 minute incubation
Procedure: as §3

P. aeruginosa ATCC 27853 = format: cell-based, Pseudomonas aeruginosa; conditions: Pseudomonas; inoculum 1×10^6 CFU/ml; 60 to 180 minute incubation
Procedure: as §3
Table 4 further compares the activity of several other compounds, including the “5R” versions of BCC01, i.e., SEQ ID NO:20 (which comprises SEQ ID NO: 7 with five additional arginines), the “5R” version of BCC002 (i.e., SEQ ID NO:18, which comprises SEQ ID NO: 1 with five additional arginines), and the 5RMP versions of BCC01 (SEQ ID NO: 23) and BCC002 (SEQ ID NO: 21). The data generally indicate the superiority of BCC003-5RMP (SEQ ID NO:22) and BCC002-5RMP (SEQ ID NO: 21) and the superiority of the 5R or 5RMP versions of the peptide over the “AEEP only” peptide against P. aeruginosa.

Acinetobacter baumannii = assay: In vitro bactericidal activity against Acinetobacter baumannii; format: cell-based; conditions: inoculum 1×10^6 CFU/ml, 60 to 180 minute incubation
Procedure: as §3

[2] = test system: Pseudomonas clinical isolate B64; assay: BIOSCREEN C growth assay, peptide plus antibiotic combinations; format: cell-based, Pseudomonas aeruginosa
Procedure: FIGS. 28A and 28B show the effect of BCC002-5R-MP (SEQ ID NO:21) in combination with Cefotaxime on MIC using Pseudomonas clinical isolate B64. Cefotaxime (Cefo) and peptide combinations included a constant amount of Cefotaxime (2.81 μg/ml) with suboptimal amounts of peptide (0, 0.34, 1.01, and 3.04 μg/ml). […] FIG. 28B is a histogram showing Fractional area (FA), which is an indication of the MIC.
FIG. 29B is a histogram showing Fractional area (FA), which is an indication of the MIC.
FIGS. 30A and 30B show the effect of BCC02-5R-MP (SEQ ID NO:21) in combination with Levofloxacin (Levo) and peptide combinations included a constant amount of Levofloxacin (3.6 μg/ml) with suboptimal amounts of peptide (0, 0.34, 1.01, 3.04 μg/ml). […] FIG. 30B is a histogram showing Fractional area (FA), which is an indication of the MIC.
The peptide and antibiotics were set up in the wells of the microtiter plate at starting ratios of MIC equivalents of antibiotic:peptide at 3:1, 1:1, and 1:3. They were serially diluted to concentrations well below suboptimal/sublethal levels of the antibiotic and peptide. The organism was added (1×10^5 CFU/well), the BIOSCREEN C™ assay (Growth Systems USA, Piscataway, N.J.) was performed, and data was collected over 24 hours.

[3] = test system: P. aeruginosa (ATCC 27853); assay: Mouse model of Pseudomonas (bacterial) keratitis; format: in vivo; conditions: C57/BL6 mice; topical peptide 0.25 to 0.75 mg/ml; 48 hours post-infection
Procedure: A circular wound was created on the mouse cornea by removing the epithelium and infected with 10^5 colony forming units (CFU) of P. aeruginosa (ATCC® 27853™ (American Type Culture Collection, Manassas, Va.)). Infected wounds were treated with saline (0.9% sodium chloride, vehicle control) or saline containing indicated concentrations of peptide every 15 minutes for 2 hours, then every 30 minutes for 3 hours on the first day. Infected wounds were treated twice on the second day and once on the third day. Mice were killed at 48 hours post-infection, and CFU/eye were quantified. The means were plotted and are representative of 5 to 9 mice per group. Mann Whitney test was performed for each group as compared to the saline control group. *P=0.014. In compound names such as BCC02-5RMP used herein, “R” represents arginine, and “MP” represents a small PEG molecule as defined elsewhere herein (such as, for example but not by way of limitation, “AEEP”).
(§4) A circular wound was created on the mouse cornea by removing the epithelium, and the wound was infected with 10^5 CFU of P. aeruginosa (ATCC® 27853™ (American Type Culture Collection, Manassas, Va.)). Infected wounds were treated with saline or saline containing indicated concentrations (2, 5, 10, and 20 mg/ml) of peptide every 30 minutes for 6 hours on the first day. Infected wounds were treated twice on the second day and once on the third day. Mice were killed at 48 hours post-infection, and the CFU/eye were quantified. The means are plotted and are representative of 5 mice per group. Mann Whitney test was performed for each group as compared to the saline control group. *P=0.015 and **P=0.097.
as §4, with “representative of 4 to 5 mice” for “representative of 5 mice”, “control group.” for “control group. *P=0.015 and **P=0.097.”
as §4, with “group. **P=0.0079 by” for “group.”, “test” for “test was performed for each group”, “group.” for “group. *P=0.015 and **P=0.097.”
A circular wound (2 mm) was created on the mouse cornea by removing the epithelium and infecting the wound with 10^5 CFU of P. aeruginosa (ATCC® 27853™ (American Type Culture Collection, Manassas, Va.)). Infected wounds were treated with saline or saline containing indicated concentrations of peptide every 15 minutes for 2 hours, then every 30 minutes for 3 hours on the first day. […] Mice were killed at 48 hours post-infection, and the colony forming units per eye (CFU/eye) were quantified. […]

Structure (SMILES) | neutralization of LPS: attenuation of TNF-α release [1] | in vitro bactericidal activity, in words (Escherichia coli) | binding of Pseudomonas LPS (Pseudomonas LPS) | in vitro bactericidal activity, in words (Salmonella typhimurium) | in vitro bactericidal activity, in words (P. aeruginosa ATCC 27853) | in vitro bactericidal activity, in words (Acinetobacter baumannii) | sensitivity of the bacterium to Cefotaxime with peptide, in words ([2]; 3.04 μg/ml of peptide with Cefotaxime 2.81 μg/ml) | effect of peptide on the killing effect of Cefotaxime, in words ([2]; 0.34 and 1.0 μg/ml of peptide with Cefotaxime 2.81 μg/ml) | CFU/eye, in words [3]
CC[C@H](C)[C@H](NC(=O)[C@H](CC(C)C)NC(=O)[C@H](C)NC(=O)CNC(=O)CNC(=O)[C@H](CO)NC(=O)[C@H](Cc1ccccc1)NC(=O)[C@H](Cc1c[nH]cn1)NC(=O)[C@H](CCCNC(=N)N)NC(=O)CNC(=O)[C@H](CCC(N)=O)NC(=O)[C@H](CC(N)=O)NC(=O)[C@H](CCCNC(=N)N)NC(=O)[C@H](CCCNC(=N)N)NC(=O)[C@H](CCCNC(=N)N)NC(=O)[C@H](CCCNC(=N)N)NC(=O)CCOCCOCCNC(=O)CCOCCOCCN)C(=O)N[C@@H](Cc1c[nH]cn1)C(=O)N[C@@H](C)C(=O)N[C@@H](CCCNC(=N)N)C(=O)N[C@@H](Cc1ccccc1)C(=O)N[C@H](C(=O)N[C@@H](CCSC)C(=O)N[C@H](C(=O)N[C@@H](C)C(=O)N[C@@H](C)C(=O)N[C@@H](CO)C(=O)N[C@@H](CS)C(=O)N[C@@H](Cc1ccccc1)C(=O)N[C@@H](CCC(N)=O)C(=O)N[C@@H](CCCNC(=N)N)C(=O)O)[C@@H](C)O)C(C)C [BCC02-5RMP] (H-[PEG2][PEG2]RRRRNQGRHFSGGALIHARFVMTAASCFQR-OH; C-terminus assumed) | attenuate the release of TNF-α | strong, but lesser activity | bound Pseudomonas LPS | strong, but lesser activity | most active | most active | now sensitive | no statistical effect | effectively killed all bacteria and cured the infection
CC[C@H](C)[C@H](NC(=O)[C@H](CC(C)C)NC(=O)[C@H](C)NC(=O)CNC(=O)CNC(=O)[C@H](CS)NC(=O)[C@H](Cc1ccccc1)NC(=O)[C@H](Cc1c[nH]cn1)NC(=O)[C@H](CCCNC(=N)N)NC(=O)CNC(=O)[C@H](CCC(N)=O)NC(=O)[C@H](CC(N)=O)NC(=O)[C@H](CCCNC(=N)N)NC(=O)[C@H](CCCNC(=N)N)NC(=O)[C@H](CCCNC(=N)N)NC(=O)[C@H](CCCNC(=N)N)NC(=O)CCOCCOCCNC(=O)CCOCCOCCN)C(=O)N[C@@H](Cc1c[nH]cn1)C(=O)N[C@@H](C)C(=O)N[C@@H](CCCNC(=N)N)C(=O)N[C@@H](Cc1ccccc1)C(=O)N[C@H](C(=O)N[C@@H](CCSC)C(=O)N[C@H](C(=O)N[C@@H](C)C(=O)N[C@@H](C)C(=O)N[C@@H](CO)C(=O)N[C@@H](CO)C(=O)N[C@@H](Cc1ccccc1)C(=O)N[C@@H](CCC(N)=O)C(=O)N[C@@H](CCCNC(=N)N)C(=O)O)[C@@H](C)O)C(C)C [BCC03-5RMP] (H-[PEG2][PEG2]RRRRNQGRHFCGGALIHARFVMTAASSFQR-OH) | attenuate the release of TNF-α | strong, but lesser activity | bound Pseudomonas LPS | strong, but lesser activity | most active | most active |  |  | 

— patent publication US11884710B2, “Peptide compounds and methods of use in wound healing” (priority 2013, dated 2024)
